5 compounds from ChEMBL document CHEMBL4316647, “Raistrickindole A, an Anti-HCV Oxazinoindole Alkaloid from Penicillium raistrickii IMB17-034” (J Nat Prod, 2019) can be followed below.

In one series the test system is A549. Kind of series: Cytotoxicity against human A549 cells. Format: functional, cell-based.
A further series concerns NCI-H460. Kind of series: Cytotoxicity against human NCI-H460 cells. The format is functional, cell-based.
The test system of the next series is HCT-116. As to the kind of experiment: Cytotoxicity against human HCT116 cells. Format: functional, cell-based.
The test system of another series is Staphylococcus aureus. Kind of series: Antibacterial activity against Staphylococcus aureus. The format is functional.
Another series has as its system Enterococcus faecalis. As to the kind of experiment: Antibacterial activity against Enterococcus faecalis. Format: functional.
Another series relates to Escherichia coli. As to the kind of experiment: Antibacterial activity against Escherichia coli. Format: functional.
A further series relates to Pseudomonas aeruginosa. As to the kind of experiment: Antibacterial activity against Pseudomonas aeruginosa. The format is functional.
The subject of a further series is Hepatitis C virus. As to the kind of experiment: Antiviral activity against HCV infected in human Huh7.5 cells assessed as reduction in intracellular HCV RNA incubated for 72 hrs by real-time one-step reverse-transcription polymerase chain reaction assay. Format: functional, organism-based, Hepacivirus hominis. To be noted: Huh7.5, 72 h.
The nature of series [1]: Cytotoxicity against human Huh7.5 cells assessed as reduction in cell viability. Format: cell-based.
The nature of series [2]: Selectivity index, ratio of CC50 for Cytotoxicity against human Huh7.5 cells to EC50 for antiviral activity against HCV infected in human Huh7.5 cells. Format: toxicity, cell-based. To be noted: read-out: Ratio CC50/EC50.

As a reminder, the IC50 is the concentration that inhibits the measured activity by half. Lower therefore signals higher potency. For orientation: MIC means the lowest concentration that inhibits growth of the organism. A higher MIC goes with a less susceptible organism. One may read the EC50 as the midpoint of the concentration-response curve. The term CC50 denotes the concentration that lowers cell viability or growth by half.

SMILES strings stand for the structures. A value given as a limit tells only on which side of the number the result lay.

For the compound `O=C1N[C@@H](Cc2ccccc2)C(=O)N2O[C@H]3Nc4ccccc4[C@@]3(O)C[C@@H]12`, the half-maximal inhibitory concentration (IC50) in the series with A549, in the series with NCI-H460 and in the series with HCT-116 was no less than 100 µM throughout. Besides, the MIC against Staphylococcus aureus, against Enterococcus faecalis, with Escherichia coli and in the series on Pseudomonas aeruginosa was greater than 128 µg/mL in each case. In the series on Hepatitis C virus, the half-maximal effective concentration (EC50) is 5.7 µM. Besides, the CC50 in series [1] is greater than 200 µM. Also, in [2], the selectivity ratio was greater than 35.
`O=C1Cn2c(nc3ccccc3c2=O)-c2ccccc2N1`: the IC50 in the series with A549, with NCI-H460 and with HCT-116 was no less than 100 µM throughout. The MIC with Staphylococcus aureus, in the series with Enterococcus faecalis, against Escherichia coli and in the series on Pseudomonas aeruginosa was greater than 128 µg/mL each time. In addition, the EC50 in the series on Hepatitis C virus amounted to 7 µM. Besides, the CC50 in series [1] is greater than 200 µM. Moreover, in [2], the selectivity ratio is greater than 28.
With `O=C1N[C@@H](Cc2ccccc2)C(=O)N(O)[C@H]1C[C@]1(O)c2ccccc2N2C(=O)C[C@@H](c3ccccc3)N[C@H]21`, the IC50 with A549, in the series on NCI-H460 and with HCT-116 was no less than 100 µM each time. Also, the MIC against Staphylococcus aureus, in the series on Enterococcus faecalis, in the series on Escherichia coli and in the series on Pseudomonas aeruginosa was greater than 128 µg/mL throughout. Further, in the series on Hepatitis C virus, the EC50 is greater than 33.3 µM. Further, the CC50 in series [1] turned out to be 88.4 µM. For the same compound, in series [2], the selectivity ratio was less than 3.
For `O=C1NCc2nc3ccccc3c(=O)n2-c2ccccc21` [SCLEROTIGENIN], the concentration for half-maximal inhibition (IC50) in the series on A549, with NCI-H460 and in the series on HCT-116 was no less than 100 µM each time. For the same compound, the MIC in the series on Staphylococcus aureus, in the series with Enterococcus faecalis, in the series with Escherichia coli and with Pseudomonas aeruginosa was greater than 128 µg/mL throughout. For the same compound, in the series on Hepatitis C virus, the EC50 came to 5.8 µM. Moreover, the 50% cytotoxic concentration (CC50) in [1] is greater than 200 µM. For the same compound, the selectivity ratio in [2] was greater than 35.
With `CCC[C@H](NC(=O)[C@@H]1[C@H]2CCC[C@H]2CN1C(=O)[C@@H](NC(=O)[C@@H](NC(=O)c1cnccn1)C1CCCCC1)C(C)(C)C)C(=O)C(=O)NC1CC1` [TELAPREVIR], in the series on Hepatitis C virus, the EC50 came out at 0.05 µM. Besides, in [1], the CC50 is 25.8 µM. In series [2], the selectivity ratio stood at 478.
